Article PMC6522510 (Nature Communications, 2019)
Where a name gives a salt, the structure may show the parent alone. Read-outs that look alike come from different tables or passages of the source. Peptide text beside a SMILES is read from it.

Columns and labels:
Set-up in all cases: species or system AML cell lines (8); Primary HTS, single concentration about 10 uM, Cell Titer Glo viability; log10 luminescence, per cent inhibition relative to cycloheximide control
Conditions in all cases: 72 h, inhibitor
[1] = system: ML-2
[2] = system: CMS
[3] = system: MOLM-13
[4] = system: U937
[5] = system: MV4-11
[6] = system: M07e
[7] = system: CHRF288-11
[8] = system: CMK
[9] = relative to cycloheximide control, log10 luminescence

Row | SMILES | ML-2 %inh [1, 9] [%] | CMS %inh [2, 9] [%] | MOLM-13 %inh [3, 9] [%] | U937 %inh [4, 9] [%] | MV4-11 %inh [5, 9] [%] | M07e %inh [6, 9] [%] | CHRF288-11 %inh [7, 9] [%] | CMK %inh [8, 9] [%] | also measured
1 | CN(c1ccc(NC(=O)Nc2ccc(OC(F)(F)F)cc2)cc1)c1ccnc(Nc2cccc(S(N)(=O)=O)c2)n1 [SJ000573281-1, U17983/20/3] | 11.59 | 4.771 | 77.33 | 20.62 | 82.54 | 21.34 | 54 | 57.59 | 
2 | Fc1ccc(-c2nn3ccccc3c2-c2ccncc2)cc1 [SJ000573260-1, U11781/145/5] | -1.762 | -2.539 | 0.1728 | 4.651 | 4.558 | 0.2861 | -2.859 | 8.765 | 
3 | CCOc1nccc2c1nc(-c1nonc1N)n2CC [SJ000573270-1, DW100508-082A1] | 28.26 | -3.21 | -1.635 | -1.837 | -0.5042 | -0.5841 | 53.12 | 45.39 | 
4 | COC(=O)c1sc(-n2cnc3cc(OC)c(OC)cc32)cc1OCc1ccccc1C(F)(F)F [SJ000573308-1, U22436/119/1] | -1.915 | 4.6 | -0.8474 | 29.63 | -1.071 | 0.7415 | -2.151 | 0.3974 | 
5 | C[C@H](CCC(=O)O)[C@H]1CC[C@H]2[C@@H]3CC[C@@H]4C[C@H](O)CC[C@]4(C)[C@H]3CC[C@]12C [SJ000286918-3, LITHOCHOLIC ACID] | 1.903 | 2.61 | 2.496 | 0.7056 | 1.619 | 1.09 | 7.532 | -0.09844 | 
6 | C[C@@H](Cn1ncnn1)Nc1ncc2cc(Oc3ccc(F)cc3F)c(=O)n(C)c2n1 [SJ000580957-1] | 0.7836 | 0.2461 | 1.122 | 0.5561 | -1.139 | 0.2176 | 0.5625 | 6.727 | 
7 | CC[C@H]1OC(=O)[C@H](C)[C@@H](O[C@H]2C[C@@](C)(OC)[C@@H](O)[C@H](C)O2)[C@H](C)[C@@H](O[C@@H]2O[C@H](C)C[C@H](N(C)C)[C@H]2O)[C@](C)(O)C[C@@H](C)[C@@H]2N[C@@H](COCCOC)O[C@H]([C@H]2C)[C@]1(C)O [SJ000286040-4, DIRITHROMYCIN] |  |  |  |  |  |  |  |  | ML-2 %inh ([1]; 10 µM): 0.363%; CMS %inh ([2]; 10 µM): -2.389%; MOLM-13 %inh ([3]; 10 µM): 5.018%; U937 %inh ([4]; 10 µM): 3.436%; MV4-11 %inh ([5]; 10 µM): -1.547%; M07e %inh ([6]; 10 µM): -2.158%; CHRF288-11 %inh ([7]; 10 µM): 3.605%; CMK %inh ([8]; 10 µM): -6.058%
8 | Nc1nc(-c2cccc(Cl)c2)c(-c2ccc3ncccc3n2)s1 [SJ000573287-1, FTTA/246/163/2] | 2.244 | 0.5039 | -0.7857 | -2.159 | -3.034 | 1.682 | 1.906 | -4.613 | 
9 | CC(C)C[C@H](N)C(=O)N[C@H](C(=O)N[C@H](C(=O)N[C@@H](Cc1ccc(O)cc1)C(=O)N1CCC[C@H]1C(=O)N[C@@H](Cc1c[nH]c2ccccc12)C(=O)N[C@H](C(=O)O)[C@@H](C)O)C(C)C)C(C)C [SJ000556698-1, SPINORPHIN] (H-LVVYPWT-OH) | -1.792 | 4.762 | -0.8143 | 0.1872 | -0.248 | -3.453 | -1.007 | 0.1545 | 
10 | CC(C)c1[nH]nc2c1N=C(c1ccccc1Cl)c1cc([N+](=O)[O-])ccc1N2 [SJ000580955-1] | -0.2118 | -2.316 | 0.5223 | -1.286 | 1.567 | 0.02064 | 1.018 | 2.501 | 
11 | CNCC(O)c1ccc(OC(=O)C(C)(C)C)c(OC(=O)C(C)(C)C)c1 (centres unmarked) [SJ000287343-2, DIPIVEFRIN HYDROCHLORIDE] | 3.768 | -0.6385 | 33.32 | 7.06 | 8.373 | 1.591 | 9.226 | -4.432 | 
12 | CC(C)=CCC/C(C)=C/CC/C(C)=C/CC/C(C)=C/CO [SJ000561066-1, GERANYLGERANIOL] | 1.709 | 3.121 | -0.5636 | 2.958 | 1.567 | 0.9105 | 0.138 | -0.4924 | 
13 | CC(C)C(=O)OCC(=O)[C@@]12O[C@H](C3CCCCC3)O[C@@H]1C[C@H]1[C@@H]3CCC4=CC(=O)C=C[C@]4(C)[C@H]3[C@@H](O)C[C@@]12C [SJ000565158-1, CICLESONIDE] |  |  |  |  |  |  |  |  | ML-2 %inh ([1]; relative to cycloheximide control, log10 luminescence, ML-2 %inh, 10 µM): -1.054%; CMS %inh ([2]; relative to cycloheximide control, log10 luminescence, CMS %inh, 10 µM): -0.07433%; MOLM-13 %inh ([3]; relative to cycloheximide control, log10 luminescence, MOLM-13 %inh, 10 µM): 4.252%; U937 %inh ([4]; relative to cycloheximide control, log10 luminescence, U937 %inh, 10 µM): -2.58%; MV4-11 %inh ([5]; relative to cycloheximide control, log10 luminescence, MV4-11 %inh, 10 µM): -5.442%; M07e %inh ([6]; relative to cycloheximide control, log10 luminescence, M07e %inh, 10 µM): -1.566%; CHRF288-11 %inh ([7]; relative to cycloheximide control, log10 luminescence, CHRF288-11 %inh, 10 µM): 0.4753%; CMK %inh ([8]; relative to cycloheximide control, log10 luminescence, CMK %inh, 10 µM): 2.034%
14 | Cn1cc(C2=C(c3cccc(Br)c3)C(=O)NC2=O)c2ccccc21 [SJ000580965-1] | -0.4526 | 0.1878 | 4.067 | 10.11 | 8.448 | 3.983 | 0.5807 | 8.568 | 
15 | CCc1cccc2c3c([nH]c12)C(CC)(CC(=O)O)OCC3 (centres unmarked) [SJ000285831-7, ETODOLAC] | 1.517 | 0.03623 | 1.754 | -0.08316 | 1.346 | 4.534 | -0.814 | 4.628 | 
16 | COc1cc(C(C)C)c2c(c1)S(=O)(=O)N(COc1cc(=O)n3cccc(OCCN4CCCCC4)c3n1)C2=O [SJ000772427-1, SSR 69071] | -0.6502 | 3.665 | 1.802 | 2.526 | 4.165 | 1.75 | -3.004 | 0.212 | 
